According to the NIST ThermoML archive (doi:10.1016/j.tca.2010.04.004):

Assay: mn = molality of the nth substance listed, in mol/kg
Conditions: 298.15 K, 101 kPa, Liquid, Vibrating tube method

O=S(=O)(O)CC(O)CN1CCOCC1 (stereo not drawn) [3-morpholino-2-hydroxypropanesulfonic acid] + O
Conditions | mass density [kg/m3]
m1 = 0.0126 | 998.04
m1 = 0.0178 | 998.45
m1 = 0.0228 | 998.84
m1 = 0.027 | 999.17
m1 = 0.036 | 999.87
m1 = 0.045 | 1000.57
m1 = 0.0519 | 1001.1
m1 = 0.063 | 1001.95
m1 = 0.0706 | 1002.53
m1 = 0.0771 | 1003.03

O=S(=O)(O)CCCCN1CCOCC1 [4-morpholinebutanesulfonic acid] + O
Conditions | mass density [kg/m3]
m1 = 0.0134 | 997.89
m1 = 0.0201 | 998.3
m1 = 0.0282 | 998.8
m1 = 0.0365 | 999.31
m1 = 0.0456 | 999.87
m1 = 0.054 | 1000.38
m1 = 0.0636 | 1000.96
m1 = 0.0702 | 1001.35
m1 = 0.0768 | 1001.74
m1 = 0.0827 | 1002.09

O=S(=O)(O)CCN1CCOCC1 [4-morpholineethanesulfonic acid] + O
Conditions | mass density [kg/m3]
m1 = 0.0114 | 997.79
m1 = 0.018 | 998.22
m1 = 0.0237 | 998.59
m1 = 0.0301 | 999.01
m1 = 0.0403 | 999.67
m1 = 0.0513 | 1000.38
m1 = 0.0614 | 1001.03
m1 = 0.0722 | 1001.72
m1 = 0.0822 | 1002.35
m1 = 0.0947 | 1003.14

O=S(=O)(O)CCCN1CCOCC1 [4-morpholinepropanesulfonic acid] + O
Conditions | mass density [kg/m3]
m1 = 0.0077 | 997.53
m1 = 0.0172 | 998.13
m1 = 0.0292 | 998.88
m1 = 0.0386 | 999.46
m1 = 0.0496 | 1000.14
m1 = 0.0556 | 1000.5
m1 = 0.0611 | 1000.84
m1 = 0.0668 | 1001.19
m1 = 0.0736 | 1001.59
m1 = 0.0812 | 1002.05
m1 = 0.0869 | 1002.39

[Br-].[K+] [potassium bromide] + O
Conditions | mass density [kg/m3]
m1 = 0.05 | 1001.25
m1 = 0.16 | 1010.47
m1 = 0.25 | 1017.89

[Cl-].[K+] [potassium chloride] + O
Conditions | mass density [kg/m3]
m1 = 0.05 | 999.45
m1 = 0.16 | 1004.53
m1 = 0.25 | 1008.66

CC(=O)[O-].[K+] [potassium ethanoate] + O
Conditions | mass density [kg/m3]
m1 = 0.05 | 999.46
m1 = 0.16 | 1004.6
m1 = 0.25 | 1008.74

[Cl-].[Na+] [sodium chloride] + O
Conditions | mass density [kg/m3]
m1 = 0.05 | 999.12
m1 = 0.16 | 1003.6
m1 = 0.25 | 1007.22
